Converted amounts (≈) assume the structure as drawn. The source made the active and inactive calls. The calls are words filed in the database; no cut-off is given here.
Legend:
[1] = Permeability in human MV4-11 cells assessed as cell availability index relative to lenalidomide; type: ADME, cell-based
[2] = Chemical stability in human MV4-11 cell culture media assessed as half life; type: physicochemical
[3] = Chemical stability in human HD-MB03 cell culture media assessed as half life; type: physicochemical
[4] = molecular target: T1, Protein cereblon/Bromodomain-containing protein 4 (Homo sapiens, UniProt O60885+Q96SW2); experiment: PROTAC activity at CRBN/Hibit-tagged BRD4 (unknown origin) expressed in HEK293 cells co-expressing LgBiT assessed as degradation of BRD4 incubated for 24 hrs by […] glo-max assay; type: cell-based
[5] = molecular target: T1, Protein cereblon/Bromodomain-containing protein 4; experiment: PROTAC activity at CRBN/Hibit-tagged BRD4 (unknown origin) expressed in HEK293 cells co-expressing LgBiT assessed as degradation of BRD4 incubated for 24 hrs by […] glo-max assay relative to control; type: cell-based
[6] = molecular target: T1, Protein cereblon/Bromodomain-containing protein 4; experiment: PROTAC activity at CRBN/Hibit-tagged BRD4 (unknown origin) expressed in HEK293 cells co-expressing LgBiT assessed as degradation rate incubated for 24 hrs by […] glo-max assay; type: cell-based
MV4-11 [7] = experiment: Cytotoxicity against human MV4-11 cells assessed as reduction in cell viability incubated for 72 hrs by cell-titer glo assay; type: functional, cell-based; conditions: MV4-11, 72 h
HD-MB03 = experiment: Cytotoxicity against human HD-MB03 cells assessed as reduction in cell viability incubated for 72 hrs by cell-titer glo assay; type: functional, cell-based; conditions: HD-MB03, 72 h
[8] = Kinetic aqueous solubility of the compound at pH 7.4; type: physicochemical; conditions: read-out: Kinetic_solubility
[9] = Metabolic stability in mouse liver microsomes assessed as half life; type: ADME, Microsome; conditions: liver microsomes
[10] = molecular target: T2, Protein cereblon/Bromodomain-containing protein 4/DNA damage-binding protein 1 (Homo sapiens) (UniProt O60885+Q96SW2+Q16531); experiment: Binding affinity to his-tagged CRBN/DDB1/GST-tagged BRD4 (49 to 170 residues)(unknown origin) assessed as ternary complex formation (AUC) incubated for 1 hr by luminescence based Alphascreen assay; type: protein assay
HEK293 = experiment: Cytotoxicity against HEK293 cells expressing LgBiT fused HiBiT-BRD2 measured after 24 hrs by cell titer-glo assay; type: toxicity, cell-based; conditions: human, hek293, 24 h
[11] = molecular target: T2, Protein cereblon/Bromodomain-containing protein 4/DNA damage-binding protein 1 (Homo sapiens); experiment: Binding affinity to his-tagged CRBN/DDB1/GST-tagged BRD4 (49 to 170 residues)(unknown origin) assessed as ternary complex formation by measuring AUC incubated for 1 hr by luminescence based Alphascreen assay; type: protein assay
[12] = Clearance in female CD1 mouse at 3 mg/kg, iv measured upto 24 hrs by LC-MS/MS analysis; type: ADME, organism-based; conditions: in vivo
[13] = Terminal elimination half life in female CD1 mouse at 3 mg/kg, iv measured upto 24 hrs by LC-MS/MS analysis; type: ADME, organism-based; conditions: in vivo, read-out: beta t1/2 (converted)
[14] = AUC in female CD1 mouse at 3 mg/kg, iv measured upto 24 hrs by LC-MS/MS analysis; type: ADME, organism-based; conditions: in vivo
[15] = Volume of distribution in female CD1 mouse at 3 mg/kg, iv measured upto 24 hrs by LC-MS/MS analysis; type: ADME, organism-based; conditions: in vivo
[16] = Cmax in female CD1 mouse at 10 mg/kg, po measured upto 24 hrs by LC-MS/MS analysis; type: ADME, organism-based; conditions: in vivo
[17] = Oral bioavailability in female CD1 mouse at 10 mg/kg measured upto 24 hrs by LC-MS/MS analysis; type: ADME, organism-based; conditions: in vivo
[18] = molecular target: T1, Protein cereblon/Bromodomain-containing protein 4; experiment: PROTAC activity at CRBN/BRD4 in human MV4-11 cells assessed as degradation of BRD4 incubated for 4 hrs by immunoblot analysis; type: cell-based
[19] = molecular target: Protein cereblon/Bromodomain-containing protein 2 (Homo sapiens) (UniProt P25440+Q96SW2); experiment: PROTAC activity at CRBN/BRD2 in human MV4-11 cells assessed as degradation of BRD2 incubated for 4 hrs by immunoblot analysis relative to control; type: cell-based
[20] = molecular target: Protein cereblon/Bromodomain-containing protein 3 (Homo sapiens) (UniProt Q15059+Q96SW2); experiment: PROTAC activity at CRBN/BRD3 in human MV4-11 cells assessed as degradation of BRD3 incubated for 4 hrs by immunoblot analysis relative to control; type: cell-based
MV4-11 [21] = experiment: Downregulation of c-Myc level in human MV4-11 cells measured after 4 hrs by immunoblot analysis; type: functional, cell-based
MV4-11 [22] = experiment: Upregulation of p53 level in human MV4-11 cells measured after 4 hrs by immunoblot analysis; type: functional, cell-based
[23] = molecular target: Protein cereblon (Homo sapiens) (UniProt Q96SW2); experiment: Binding affinity to CRBN (unknown origin)
[24] = Chemical stability in human MV4-11 cell culture media at 400 uM measured upto 72 hrs by UPLC analysis; type: physicochemical
[25] = Chemical stability in human HD-MB03 cell culture media at 400 uM measured upto 72 hrs by UPLC analysis; type: physicochemical
[26] = Effect on BRD3 level in human MV4-11 cells assessed as fold change at 100 nM measured after 4 hrs; type: functional
[27] = Effect on BRD4 level in human MV4-11 cells assessed as fold change at 100 nM measured after 4 hrs; type: functional
[28] = Effect on BRD2 level in human MV4-11 cells assessed as fold change at 100 nM measured after 4 hrs; type: functional
[29] = Effect on MYC level in human MV4-11 cells assessed as fold change at 100 nM measured after 4 hrs; type: functional
[30] = Effect on FYTTD1 level in human MV4-11 cells assessed as fold change at 100 nM measured after 4 hrs; type: functional
[31] = Effect on CCNF level in human MV4-11 cells assessed as fold change at 100 nM measured after 4 hrs; type: functional
[32] = Effect on CDC42EP3 level in human MV4-11 cells assessed as fold change at 100 nM measured after 4 hrs; type: functional
[33] = Effect on MCL1 level in human MV4-11 cells assessed as fold change at 100 nM measured after 4 hrs; type: functional
[34] = Effect on PLAU level in human MV4-11 cells assessed as fold change at 100 nM measured after 4 hrs; type: functional
[35] = Effect on ZFP36L2 level in human MV4-11 cells assessed as fold change at 100 nM measured after 4 hrs; type: functional
[36] = Effect on FGL2 level in human MV4-11 cells assessed as fold change at 100 nM measured after 4 hrs; type: functional
[37] = Effect on NSA2 level in human MV4-11 cells assessed as fold change at 100 nM measured after 4 hrs; type: functional
[38] = Effect on CCND3 level in human MV4-11 cells assessed as fold change at 100 nM measured after 4 hrs; type: functional
[39] = Effect on AURKA level in human MV4-11 cells assessed as fold change at 100 nM measured after 4 hrs; type: functional
[40] = Effect on NOP53 level in human MV4-11 cells assessed as fold change at 100 nM measured after 4 hrs; type: functional
[41] = Effect on PLK1 level in human MV4-11 cells assessed as fold change at 100 nM measured after 4 hrs; type: functional
[42] = Effect on RNF166 level in human MV4-11 cells assessed as fold change at 100 nM measured after 4 hrs; type: functional
[43] = Effect on ZBTB21 level in human MV4-11 cells assessed as fold change at 100 nM measured after 4 hrs; type: functional
[44] = Effect on TP53 level in human MV4-11 cells assessed as fold change at 100 nM measured after 4 hrs; type: functional
[45] = Permeability in MDCK-II cells incubated for 1 hr by UPLC/MS/UV analysis; type: ADME, cell-based, Canis lupus familiaris; conditions: dog, read-out: permeability
[46] = Stability in mouse plasma assessed as half life by UPLC-MS/MS analysis; type: ADME, cell-free
[47] = AUC last in female CD1 mouse at 10 mg/kg, po measured upto 24 hrs by LC-MS/MS analysis; type: ADME, organism-based; conditions: in vivo

SMILES: Cc1sc2c(c1C)C(c1ccc(Cl)cc1)=N[C@@H](CC(=O)NCCCCNC(=O)COc1cccc3c1C(=O)N(C1CCC(=O)NC1=O)C3=O)c1nnc(C)n1-2 (some centres undefined)
- Ratio [1]: 140
- half-life [2]: 252 min
- half-life [3]: 252 min

SMILES: Cc1sc2c(c1C)C(c1ccc(Cl)cc1)=N[C@@H](CC(=O)N1CCC(CN3CCN(c4ccc(C5CCC(=O)NC5=O)cc4)CC3)CC1)c1nnc(C)n1-2 (some centres undefined)
- DC50 [4]: 0.19 nM
- Emax [5]: 96.9%
- Activity [6]: 0.292 fRLU/hr
- IC50 (MV4-11 [7]): 0.12 nM
- IC50 (HD-MB03): 0.92 nM
- solubility kinetic [8]: 48.4 µM (≈ 36.5 µg/mL)
- half-life [9]: 78 min
- Activity [10]: Active
- Activity (HEK293): Non-toxic
- AUC [11]: 281000
- clearance [12]: 8.85 mL/min/kg
- half-life [13]: 204 min
- AUC at 24 h [14]: 5540 ng·h/mL
- Vd [15]: 0.85 L/kg
- Cmax [16]: 2440 ng/mL
- bioavailability [17]: 45%
- DC50 [18]: 0.127 nM
- Activity [19]: > 90%
- Activity [20]: > 90%
- Activity (MV4-11 [21]): Active
- Activity (MV4-11 [22]): Active
- Activity [23]: Active
- Stability [24]: Stable
- Stability [25]: Stable
- fold change (FC) [26]: -3.85
- fold change (FC) [27]: -3.85
- fold change (FC) [28]: -3.52
- fold change (FC) [29]: -2.05
- fold change (FC) [30]: -1.67
- fold change (FC) [31]: -1.13
- fold change (FC) [32]: -1.38
- fold change (FC) [33]: -1.21
- fold change (FC) [34]: -1.2
- fold change (FC) [35]: -1.18
- fold change (FC) [36]: -1.16
- fold change (FC) [37]: -1.05
- fold change (FC) [38]: -0.99
- fold change (FC) [39]: -0.97
- fold change (FC) [40]: -0.91
- fold change (FC) [41]: -0.81
- fold change (FC) [42]: -0.12
- fold change (FC) [43]: -0.15
- fold change (FC) [44]: 1.92
- Papp at 1 h [45]: 1.7 ×10⁻⁶ cm/s
- half-life [46]: 438 min
- AUC(0-t) at 24 h [47]: 8060 ng·h/mL
